# Measurements from publication PMC12717099, “Peptidoglycan recruitment by a penicillin binding protein” (Nature Communications, 2025).
# Tests used:
# PBP5 = test: Bocillin FL fluorescence polarization binding competition assay; parameters: species or system Enterococcus faecium; conditions: antibiotic fixed 60 μM, PBP5 3.6 µM, Bocillin FL 30 nM, 37 °C, n = 3
# Description: The assays were performed in low-volume 384-well black polystyrene assay plate (Corning, 4511), using assay buffer (100 mM Na-phosphate pH 7.0, 0.01% Triton X-100) to prevent the adsorption of Bocillin FL (Invitrogen, B13233) to the plate. Bocillin FL was dissolved in DMSO and stored as a 1 mM stock in the −20 °C freezer. Fresh working stock of Bocillin FL was made each day for the assays by diluting the stock with the assay buffer for a final concentration of 30 nM. The final concentration of PBP5 for the assays was 3.6 µM. The antibiotic, either penicillin G, ceftaroline or ceftriaxone, was added to PBP5 before the reactions were initiated by the addition of Bocillin FL. The plate was sealed with ThermalSeal RT silicone adhesive film (EXCEL Scientific, TSS-RTQ-100) to prevent evaporation during the measurements. Reaction without PBP5 (Bocillin FL only) was used as negative control. All reactions were carried out at 37 °C in a CLARIOStar plate reader (BMG Labtech) equipped with the 482 nm excitation filter, 530 nm emission filter and a dichroic filter LP504. The focal height was adjusted to 11.3 mm and the gain was set to 10 mP using the negative control. Measurements were made at 40 s intervals for up to 75 min with 100 flashes per measurement. Three replicates were made for each treatment in each run, and the experiment was repeated 3 times.
# [1] = tested on: E. faecium D344SRF pCWR624Δpbp5_pbp5_V6; test: MIC by broth microdilution, pbp5_V6; format: cell-based, Enterococcus faecium; conditions: strain pbp5_V6 (E284A_E291A_S294A_N295A); 37 °C, 20 h; n=3
# Description: The synthetic genes were purchased from GeneWiz (South Plainfield, NJ). The ribosome binding site sequence AGGAGG (Shine-Dalgarno), and a string of five A’s followed by the sequence […], that corresponds to the first 15 bp found in pbp5 from E. faecium C68 were added upstream of the START codon. The terminator sequence […] was added downstream of the STOP codon. BamHI restriction sites were added to the flanking 5′ and 3′ ends. The synthetic genes were inserted into the vector pCWR624Δpbp5. This vector was derived from pCWR624[10], in which the pbp5 gene from D366 was excised by digestion with BamHI followed by re-ligation of the vector, allowing subsequent insertion of modified synthetic pbp5s into the BamHI site downstream of ftsWEfm and psr from E. faecium C68[10]. The synthetic genes were inserted in a BamHI site located downstream of psr. The proper orientation was confirmed by PCR amplification using the forward primer OR_pbp5_FOR_1 (5′-[…]-3′) and the reverse primer OR_pbp5_REV_1 (5′-[…]-3′). Plasmids were sequence verified for the specific binding site mutations. The resulting constructions were electroporated into the natural pbp5(-) mutant E. faecium D344SRF with a selection on brain heart infusion agar (BHI) plates containing kanamycin (1500 µg/ml).
# E. faecium strains were streaked fresh from −80 °C stored glycerol stocks onto brain heart infusion (BHI) agar plates and incubated for 18 h at 37 °C. Strains harboring the plasmid derivatives were grown under antibiotic pressure on agar plates containing kanamycin at 1500 µg/ml. A single colony was inoculated into BHI or BHI-kanamycin (1500 µg/ml) for overnight cultures (18 h).
# MIC determination was performed using a standard broth microdilution technique in duplicate from independent cultures. Overnight cultures were inoculated into 3 ml of BHI or BHI-kanamycin (1500 µg/ml) broth in a dilution of 1:100 and incubated until an OD600 of ~0.5 was reached. Cultures were diluted 1:1000 and inoculated into the 96-well plates with the corresponding antibiotics to be tested. Plates were incubated at 37 °C for 20 h and read by eye. […]
# PBP5:ceftaroline complex = test: 1D 1H STD NMR of SP2 with PBP5:ceftaroline; format: binding, Enterococcus faecium; conditions: for STD amplification factor: ceftaroline-saturated PBP5, 2 s saturation
# Excerpt: Total saturation time for STD measurements was 2 s.
# Overlapped peaks were completely excluded from the analysis.
compound,measurement,setting,value
"CO/N=C(\C(=O)N[C@@H]1C(=O)N2C(C(=O)O)=C(CSc3nc(=O)c(=O)[nH]n3C)CS[C@H]12)c1csc(N)n1 [Ceftriaxone, ceftriaxone]","binding/inhibition of PBP5, in words",PBP5,does not bind/inhibit PBP5
same,"binding/inhibition of PBP5, in words",PBP5; listed as ceftriaxone,does not bind
same,MIC (µg/ml) [Range],[1],> 3200 [>3200] µg/ml
D-Lac-L-Ala-D-iGln-L-Lys(D-iAsn) [SP2],"STD amplification factor, ref to SP1 (fraction)",PBP5:ceftaroline complex; 1H DLacβ,0.3324
same,"STD, ref to SP1 (percent)",PBP5:ceftaroline complex; 1H DLacβ,33.2419
same,STD amplification factor,PBP5:ceftaroline complex; 1H DLacβ,8.945
same,"STD amplification factor, ref to SP1 (fraction)",PBP5:ceftaroline complex; 1H DQ2β (first listed),0.6862
same,"STD, ref to SP1 (percent)",PBP5:ceftaroline complex; 1H DQ2β (first listed),68.622
same,STD amplification factor,PBP5:ceftaroline complex; 1H DQ2β (first listed),18.4651
same,"STD amplification factor, ref to SP1 (fraction)",PBP5:ceftaroline complex; 1H DQ2β (second listed),0.9243
same,"STD, ref to SP1 (percent)",PBP5:ceftaroline complex; 1H DQ2β (second listed),92.4275
same,STD amplification factor,PBP5:ceftaroline complex; 1H DQ2β (second listed),24.8707
same,"STD amplification factor, ref to SP1 (fraction)",PBP5:ceftaroline complex; 1H DQ2γ,0.3051
same,"STD, ref to SP1 (percent)",PBP5:ceftaroline complex; 1H DQ2γ,30.515
same,STD amplification factor,PBP5:ceftaroline complex; 1H DQ2γ,8.211
same,"STD amplification factor, ref to SP1 (fraction)",PBP5:ceftaroline complex; 1H K3α,0.5095
same,"STD, ref to SP1 (percent)",PBP5:ceftaroline complex; 1H K3α,50.9537
same,STD amplification factor,PBP5:ceftaroline complex; 1H K3α,13.7108
same,"STD amplification factor, ref to SP1 (fraction)",PBP5:ceftaroline complex; 1H K3β,1.007
same,"STD, ref to SP1 (percent)",PBP5:ceftaroline complex; 1H K3β,100.738
same,STD amplification factor,PBP5:ceftaroline complex; 1H K3β,27.1069
same,"STD amplification factor, ref to SP1 (fraction)",PBP5:ceftaroline complex; 1H K3γ,0.5588
same,"STD, ref to SP1 (percent)",PBP5:ceftaroline complex; 1H K3γ,55.8765
same,STD amplification factor,PBP5:ceftaroline complex; 1H K3γ,15.0355
same,"STD amplification factor, ref to SP1 (fraction)",PBP5:ceftaroline complex; 1H K3δ,0.7209
same,"STD, ref to SP1 (percent)",PBP5:ceftaroline complex; 1H K3δ,72.0884
same,STD amplification factor,PBP5:ceftaroline complex; 1H K3δ,19.3978
same,"STD amplification factor, ref to SP1 (fraction)",PBP5:ceftaroline complex; 1H K3ε,0.1435
same,"STD, ref to SP1 (percent)",PBP5:ceftaroline complex; 1H K3ε,14.3544
same,STD amplification factor,PBP5:ceftaroline complex; 1H K3ε,3.863
same,"STD amplification factor, ref to SP1 (fraction)",PBP5:ceftaroline complex; 1H LA1α,0.3824
same,"STD, ref to SP1 (percent)",PBP5:ceftaroline complex; 1H LA1α,38.2438
same,STD amplification factor,PBP5:ceftaroline complex; 1H LA1α,10.2908
same,"STD amplification factor, ref to SP1 (fraction)",PBP5:ceftaroline complex; 1H LA1β,0.3611
same,"STD, ref to SP1 (percent)",PBP5:ceftaroline complex; 1H LA1β,36.1111
same,STD amplification factor,PBP5:ceftaroline complex; 1H LA1β,9.717
same,"STD amplification factor, ref to SP1 (fraction)","PBP5:ceftaroline complex; 1H iNα,DQ2α",0.2432
same,"STD, ref to SP1 (percent)","PBP5:ceftaroline complex; 1H iNα,DQ2α",24.3189
same,STD amplification factor,"PBP5:ceftaroline complex; 1H iNα,DQ2α",6.544
same,"STD amplification factor, ref to SP1 (fraction)",PBP5:ceftaroline complex; 1H iNβ,0.3137
same,"STD, ref to SP1 (percent)",PBP5:ceftaroline complex; 1H iNβ,31.3676
same,STD amplification factor,PBP5:ceftaroline complex; 1H iNβ,8.441
